Assay results: paper PMC8151276, “An Integrated Approach toward NanoBRET Tracers for Analysis of GPCR Ligand Engagement” (Molecules, 2021)

Experiments:
Format in all cases: binding
NPY1R = biological target: T1, NPY1R (Homo sapiens, UniProt P25929); assay: NanoBRET screen HiBiT-NPY1R in HEK293; details: NPY1R
T1 construct: purchased Promega (in-house HiBiT-GPCR construct library, NanoBRET)
T1 sequence (P25929 1-384): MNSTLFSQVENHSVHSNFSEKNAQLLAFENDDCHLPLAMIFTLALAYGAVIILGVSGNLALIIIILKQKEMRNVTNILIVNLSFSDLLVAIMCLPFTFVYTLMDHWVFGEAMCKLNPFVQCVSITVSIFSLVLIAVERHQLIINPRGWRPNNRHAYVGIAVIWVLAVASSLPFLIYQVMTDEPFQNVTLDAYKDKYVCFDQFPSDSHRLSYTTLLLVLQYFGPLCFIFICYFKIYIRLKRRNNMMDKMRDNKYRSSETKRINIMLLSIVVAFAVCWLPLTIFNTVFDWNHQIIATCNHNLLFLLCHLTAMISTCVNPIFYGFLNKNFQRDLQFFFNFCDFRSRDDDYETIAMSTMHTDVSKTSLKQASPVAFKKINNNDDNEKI
Method: (§1) Each tracer candidate was screened across the entire library of HiBiT-GPCR constructs using NanoBRET as the detection modality. As depicted in Figure 4A, the specificity of interactions was evaluated through decrease in BRET due to competitive displacement of a bound tracer by excess parental compound. Each tracer was analyzed for binding to each HiBiT-GPCR fusion in the absence and in the presence of competing parental compound. Briefly, HEK293 cells were transfected with HiBiT-GPCR constructs diluted into promoterless DNA to reduce expression and maximize translocation to the cell surface. Each tracer candidate was then screened at concentrations of 1 μM and 0.1 μM across cells expressing these fusions. Cells were treated for 1.5 h with tracer either alone or in the presence of 20 μM competing parental compound (i.e., control). BRET was measured upon addition of purified LgBiT and subsequent complementation with HiBiT genetically fused to a GPCR. The specificity of interactions was assessed through a decrease in BRET signal due to competitive displacement of the bound tracer. To further gauge the robustness of these interactions, the fold response over the control (i.e., BRETtracer/BRETcontrol) was calculated. We chose a 1.5-fold response, which translates to ≥7-fold signal over noise as the minimal threshold required to score an interaction as positive. […]. Below we highlight the screening results obtained for our exemplary fluorescent tracers based on Clozapine, Amitriptyline and AZD1283.
(§2) HiBiT-GPCR DNA constructs were diluted in 10 mM Tris pH 8 to a final concentration of 0.01 μg/μL, arrayed in 96-well plates and stored at −20 °C. For transfection, HEK293 cells were suspended in Opti-MEM (without phenol red) supplemented with 2% fetal bovine serum (Seradigm) and 100 units/mL penicillin–streptomycin (Gibco) at a final concentration of 220,000 cells/mL and dispensed into white 96-well plates at 90 μL/well. Subsequent transfections and screens were carried using an Agilent Bravo Automated Liquid Handling Platform. First, the 96-well HiBiT DNA arrays were diluted 25-fold in Opti-MEM (without serum or phenol red) to a final concentration of 0.0004 μg/μL and 20 μL of the diluted DNAs were transferred into new 96-well plates. Next, promoterless carrier DNA (1 μg/μL) was diluted 25-fold (0.04 μg/μL) and then dispensed into the diluted arrays at 20 μL/well. Following brief mixing, Viafect transfection reagent (Promega) diluted 16-fold into Opti-MEM was dispensed into the plates at 40 μL/well. After mixing by pipetting, plates were incubated for 10 min on the pipetting station deck. The DNA-transfection reagent complexes were then added to plates containing cells. To facilitate the screen, 10 μL of DNA-transfection reagent complexes were added in duplicates to the top 4 and bottom 4 rows, resulting in two identical 48-well arrays per plate. Plates with transfected cells were incubated for 18–20 h at 37 °C/5% CO2. A screen of each tracer across the entire library using two different concentrations requires duplicate plates of transfected cells. Depending on the number of tracers being screened, transfections can be scaled up using the same ratios. The next day, for each tracer, four 20× screening solutions in tracer dilution buffer (Promega) were prepared: two duplicates at final concentration of 20 μM and two duplicates at a final concentration of 2 μM. A competing unmodified compound was added to one of each duplicate at a final concentration of 400 μM. The four resulting solutions were diluted 4-fold in Opti-MEM without serum or phenol red to generate 5× solutions (5 µM and 0.5 µM tracer +/− 100 μM competing compound). To screen the library, a BioTek MultiFlo FX liquid dispenser was used to dispense 22.5 µL of tracer solution to the top 4 rows and 22.5 µL tracer + competing compound solution to the 4 bottom rows. Plates were briefly mixed on an orbital shaker and incubated for 1.5 h at room temperature. […]

FZD8 = biological target: T2, FZD8 (Homo sapiens, UniProt Q9H461); assay: NanoBRET screen HiBiT-FZD8 in HEK293; details: FZD8
T2 construct: purchased Promega (in-house HiBiT-GPCR construct library, NanoBRET)
T2 sequence (Q9H461 28-694): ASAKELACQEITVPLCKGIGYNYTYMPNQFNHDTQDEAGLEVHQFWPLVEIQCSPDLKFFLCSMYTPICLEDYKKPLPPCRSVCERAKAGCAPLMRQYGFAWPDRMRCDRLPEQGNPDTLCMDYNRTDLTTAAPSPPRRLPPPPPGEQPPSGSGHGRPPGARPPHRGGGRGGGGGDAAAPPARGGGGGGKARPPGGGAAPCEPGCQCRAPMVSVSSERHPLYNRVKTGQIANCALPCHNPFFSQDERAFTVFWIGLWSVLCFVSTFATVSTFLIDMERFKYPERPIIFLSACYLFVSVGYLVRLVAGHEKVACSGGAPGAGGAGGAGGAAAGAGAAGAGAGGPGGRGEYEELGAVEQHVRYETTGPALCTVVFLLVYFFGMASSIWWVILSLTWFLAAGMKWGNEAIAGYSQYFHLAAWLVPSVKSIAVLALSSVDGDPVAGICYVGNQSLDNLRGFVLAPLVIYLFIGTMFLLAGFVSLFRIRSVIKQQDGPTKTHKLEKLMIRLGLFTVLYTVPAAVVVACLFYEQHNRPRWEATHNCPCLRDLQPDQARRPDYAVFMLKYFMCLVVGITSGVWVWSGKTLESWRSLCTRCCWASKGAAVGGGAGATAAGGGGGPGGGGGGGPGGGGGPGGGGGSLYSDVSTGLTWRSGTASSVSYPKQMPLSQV
Method: as §1, §2

MCHR1 = biological target: T3, MCHR1 (Homo sapiens, UniProt Q99705); assay: NanoBRET screen HiBiT-MCHR1 in HEK293; details: MCHR1
T3 construct: purchased Promega (in-house HiBiT-GPCR construct library, NanoBRET)
T3 sequence (Q99705 whole entry): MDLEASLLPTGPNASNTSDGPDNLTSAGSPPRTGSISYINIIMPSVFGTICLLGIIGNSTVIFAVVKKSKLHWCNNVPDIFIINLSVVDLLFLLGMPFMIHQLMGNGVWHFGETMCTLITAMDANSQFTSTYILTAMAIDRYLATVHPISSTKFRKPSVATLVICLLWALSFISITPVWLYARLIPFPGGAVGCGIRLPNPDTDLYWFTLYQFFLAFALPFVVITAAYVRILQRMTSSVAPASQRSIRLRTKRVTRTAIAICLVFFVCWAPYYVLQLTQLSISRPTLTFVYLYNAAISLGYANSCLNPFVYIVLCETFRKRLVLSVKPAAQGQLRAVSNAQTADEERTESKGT
Method: as §1, §2

GRM5 = biological target: T4, GRM5 (Homo sapiens, UniProt P41594); assay: NanoBRET screen HiBiT-GRM5 in HEK293; details: GRM5
T4 construct: purchased Promega (in-house HiBiT-GPCR construct library, NanoBRET)
T4 sequence (P41594 21-1212): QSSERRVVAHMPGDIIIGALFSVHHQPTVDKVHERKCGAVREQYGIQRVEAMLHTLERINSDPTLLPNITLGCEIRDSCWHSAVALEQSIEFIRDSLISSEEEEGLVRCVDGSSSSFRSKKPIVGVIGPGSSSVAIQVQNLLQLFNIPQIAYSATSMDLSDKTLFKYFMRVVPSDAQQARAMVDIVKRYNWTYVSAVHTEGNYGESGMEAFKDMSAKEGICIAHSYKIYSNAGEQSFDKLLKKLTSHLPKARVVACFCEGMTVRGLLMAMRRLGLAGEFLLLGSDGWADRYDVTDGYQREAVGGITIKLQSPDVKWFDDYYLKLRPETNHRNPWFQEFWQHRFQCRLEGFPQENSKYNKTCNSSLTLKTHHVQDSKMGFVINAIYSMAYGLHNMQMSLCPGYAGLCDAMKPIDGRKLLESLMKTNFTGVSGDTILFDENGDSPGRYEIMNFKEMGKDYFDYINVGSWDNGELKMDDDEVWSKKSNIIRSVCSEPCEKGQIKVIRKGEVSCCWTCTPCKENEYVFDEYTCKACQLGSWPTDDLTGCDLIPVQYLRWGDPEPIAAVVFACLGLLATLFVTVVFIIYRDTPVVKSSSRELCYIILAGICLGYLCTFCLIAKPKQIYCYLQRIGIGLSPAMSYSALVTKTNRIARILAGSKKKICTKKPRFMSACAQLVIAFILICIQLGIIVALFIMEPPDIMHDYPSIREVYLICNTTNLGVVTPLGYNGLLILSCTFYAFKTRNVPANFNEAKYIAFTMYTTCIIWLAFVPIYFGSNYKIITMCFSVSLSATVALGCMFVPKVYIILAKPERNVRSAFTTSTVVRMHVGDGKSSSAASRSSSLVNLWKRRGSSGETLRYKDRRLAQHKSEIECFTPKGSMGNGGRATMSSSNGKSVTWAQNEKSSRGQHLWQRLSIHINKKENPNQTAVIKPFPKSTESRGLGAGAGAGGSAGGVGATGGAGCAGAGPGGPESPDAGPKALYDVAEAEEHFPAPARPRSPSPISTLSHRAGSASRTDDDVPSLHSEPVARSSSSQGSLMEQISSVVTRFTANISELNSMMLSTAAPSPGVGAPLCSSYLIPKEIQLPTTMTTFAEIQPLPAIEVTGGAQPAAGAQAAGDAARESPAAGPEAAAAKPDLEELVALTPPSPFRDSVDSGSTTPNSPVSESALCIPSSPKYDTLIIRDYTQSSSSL
Method: as §1, §2

CCR1 = biological target: T5, CCR1 (Homo sapiens, UniProt P32246); assay: NanoBRET screen HiBiT-CCR1 in HEK293; details: CCR1
T5 construct: purchased Promega (in-house HiBiT-GPCR construct library, NanoBRET)
T5 sequence (P32246 1-355): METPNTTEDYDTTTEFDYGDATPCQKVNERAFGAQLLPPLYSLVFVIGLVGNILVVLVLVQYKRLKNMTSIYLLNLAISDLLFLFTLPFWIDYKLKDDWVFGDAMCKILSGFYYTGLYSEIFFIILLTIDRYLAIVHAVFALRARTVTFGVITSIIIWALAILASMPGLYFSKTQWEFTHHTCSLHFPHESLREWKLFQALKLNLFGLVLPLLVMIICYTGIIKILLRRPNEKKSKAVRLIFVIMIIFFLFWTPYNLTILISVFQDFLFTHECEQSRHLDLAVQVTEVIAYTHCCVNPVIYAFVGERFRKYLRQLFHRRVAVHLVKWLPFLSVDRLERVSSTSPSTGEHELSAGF
Method: as §1, §2

HRH4 = biological target: T6, HRH4 (Homo sapiens, UniProt Q9H3N8); assay: NanoBRET screen HiBiT-HRH4 in HEK293; details: HRH4
T6 construct: purchased Promega (in-house HiBiT-GPCR construct library, NanoBRET)
T6 sequence (Q9H3N8 whole entry): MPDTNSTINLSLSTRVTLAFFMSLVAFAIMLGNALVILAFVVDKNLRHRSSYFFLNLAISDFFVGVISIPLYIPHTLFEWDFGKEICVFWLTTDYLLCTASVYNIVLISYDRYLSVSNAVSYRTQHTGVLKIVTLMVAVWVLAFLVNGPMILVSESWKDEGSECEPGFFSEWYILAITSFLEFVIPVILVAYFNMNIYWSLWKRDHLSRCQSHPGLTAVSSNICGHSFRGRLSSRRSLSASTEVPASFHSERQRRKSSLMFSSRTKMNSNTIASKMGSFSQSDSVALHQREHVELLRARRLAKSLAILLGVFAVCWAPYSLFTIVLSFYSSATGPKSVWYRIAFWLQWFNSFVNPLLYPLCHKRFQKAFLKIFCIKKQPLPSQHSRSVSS
Method: as §1, §2

P2RY1 = biological target: T7, P2RY1 (Homo sapiens, UniProt P47900); assay: NanoBRET screen HiBiT-P2RY1 in HEK293; details: P2RY1
T7 construct: purchased Promega (in-house HiBiT-GPCR construct library, NanoBRET)
T7 sequence (P47900 whole entry): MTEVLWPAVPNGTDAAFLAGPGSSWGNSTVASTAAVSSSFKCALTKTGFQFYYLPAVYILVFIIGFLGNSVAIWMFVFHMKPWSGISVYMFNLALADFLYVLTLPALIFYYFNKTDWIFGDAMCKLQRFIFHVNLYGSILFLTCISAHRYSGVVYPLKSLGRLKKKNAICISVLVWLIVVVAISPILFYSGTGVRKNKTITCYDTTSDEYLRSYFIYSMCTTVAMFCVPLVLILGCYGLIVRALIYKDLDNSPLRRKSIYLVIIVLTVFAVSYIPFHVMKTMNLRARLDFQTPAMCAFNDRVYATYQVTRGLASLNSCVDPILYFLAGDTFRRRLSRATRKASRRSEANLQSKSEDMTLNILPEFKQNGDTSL
Method: as §1, §2

SMILES | NanoBRET Fold Response (NPY1R; tracer 0.1μM) | NanoBRET Fold Response (NPY1R; tracer 1μM) | NanoBRET Fold Response (FZD8; tracer 0.1μM) | NanoBRET Fold Response (FZD8; tracer 1μM) | NanoBRET Fold Response (MCHR1; tracer 0.1μM) | NanoBRET Fold Response (MCHR1; tracer 1μM) | NanoBRET Fold Response (GRM5; tracer 0.1μM) | NanoBRET Fold Response (GRM5; tracer 1μM) | NanoBRET Fold Response (CCR1; tracer 0.1μM) | NanoBRET Fold Response (CCR1; tracer 1μM) | NanoBRET Fold Response (HRH4; tracer 0.1μM) | NanoBRET Fold Response (HRH4; tracer 1μM) | NanoBRET Fold Response (P2RY1; tracer 0.1μM) | NanoBRET Fold Response (P2RY1; tracer 1μM) | further results
O=C(CCc1ccc2n1[B-](F)(F)[N+]1=C(c3ccc[nH]3)C=CC1=C2)NCc1ccc(C(=O)NCCOCCOCCNCC(O)COc2cccc3ccccc23)cc1 (stereo not drawn) [Propranolol-3-NB590] |  |  |  |  |  |  |  |  |  |  |  |  |  |  | NanoBRET Fold Response (NPY1R; 0.1μM): 1.08; NanoBRET Fold Response (NPY1R; 1μM): 0.99; NanoBRET Fold Response (FZD8; 0.1μM): 1.01; NanoBRET Fold Response (FZD8; 1μM): 1.02; NanoBRET Fold Response (MCHR1; 0.1μM): 0.96; NanoBRET Fold Response (MCHR1; 1μM): 1.03; NanoBRET Fold Response (GRM5; 0.1μM): 1.04; NanoBRET Fold Response (GRM5; 1μM): 1.02; NanoBRET Fold Response (CCR1; 0.1μM): 1.03; NanoBRET Fold Response (CCR1; 1μM): 0.97; NanoBRET Fold Response (HRH4; 0.1μM): 0.92; NanoBRET Fold Response (HRH4; 1μM): 0.97; NanoBRET Fold Response (P2RY1; 0.1μM): 1.02; NanoBRET Fold Response (P2RY1; 1μM): 0.97
O=C(CCc1ccc2n1[B-](F)(F)[N+]1=C(c3ccc[nH]3)C=CC1=C2)NCCOCCOCCNC(=O)OCCOCCN1CCN(C2=Nc3ccccc3Sc3ccccc32)CC1 [Quetiapine-a-2-NB590] | 1.03 | 0.71 | 1.02 | 1.08 | 1.04 | 0.84 | 1.08 | 1.05 | 0.99 | 0.99 | 1.01 | 0.96 | 1.00 | 1.01 | 
Cc1nc2n(c(=O)c1CCN1CCC(c3noc4cc(F)ccc34)CC1)CCCC2OC(=O)NCCOCCOCCOCCOCCNC(=O)CCc1ccc2n1[B-](F)(F)[N+]1=C(c3ccc[nH]3)C=CC1=C2 (stereo not drawn) [Risperidone-2-NB590] | 0.88 | 0.99 | 1.02 | 1.12 | 0.94 | 0.97 | 0.98 | 1.02 | 1.00 | 0.99 | 1.03 | 1.07 | 0.98 | 0.97 | 
CC(C)N(CC[C@H](c1ccccc1)c1cc(CCNC(=O)CCOCCOCCOCCOCCNC(=O)CCc2ccc3n2[B-](F)(F)[N+]2=C(c4ccc[nH]4)C=CC2=C3)ccc1O)C(C)C [Tolterodine-2-NB590] | 1.16 | 1.00 | 1.07 | 1.12 | 1.18 | 0.95 | 0.99 | 0.87 | 0.97 | 0.94 | 1.05 | 1.03 | 0.97 | 1.00 | 
CC(C)N(CC[C@H](c1ccccc1)c1cc(CCNC(=O)c2ccc(CNC(=O)CCc3ccc4n3[B-](F)(F)[N+]3=C(c5ccc[nH]5)C=CC3=C4)cc2)ccc1O)C(C)C [Tolterodine-BZ-NB590] | 1.15 | 0.95 | 1.00 | 1.02 | 0.83 | 0.95 | 1.00 | 1.05 | 1.09 | 0.96 | 0.82 | 0.88 | 1.43 | 1.03 | 
CCCn1c(=O)c2[nH]c(-c3ccc(OCC(=O)NCCNC(=O)CCOCCNC(=O)c4ccc(CNC(=O)CCc5ccc6n5[B-](F)(F)[N+]5=C(c7ccc[nH]7)C=CC5=C6)cc4)cc3)nc2n(CCC)c1=O [XAC-3-NB590] | 1.01 | 0.95 | 0.95 | 1.02 | 1.01 | 1.03 | 1.01 | 0.98 | 0.83 | 1.09 | 1.37 | 1.05 | 1.05 | 0.96 | 
